For one test, the system named is JHH-7. Briefly: In vitro growth inhibition of JHH-7 cells. The format is cell-based. The settings on record: Homo sapiens, JHH7, FGFR3+++, FGFR4 +++. The method, then:
(§1) Adherent cells were digested with 0.25% trypsin-EDTA (Gibco). Suspension culture cells were collected by centrifugation (1700 rpm, 3 minutes). The supernatant was discarded and the cells were counted. According to each cell growth cycle, different concentrations of cells were prepared (5˜10×10^4 cells per ml), and inoculated to 96-well plates (Corning), with 100 μl per well, and incubated overnight at 37° C., 5% CO2. The next day, the test compound was added to the cultured cells (2 wells in parallel). The final concentration of the solvent was less than 1/1,000. The cells were further cultured for 3 to 5 days and assayed by MTT.
(§2) The MTT test reagent was a Dojindo CCK8 kit and the Microplate Reader was a THERMO […] FC instrument.
(§3) The adherent cells were taken out from the cell culture medium, and immediately added to a freshly prepared complete medium containing 10% CCK8 (5% FBS), 100 ul per hole. The suspended cells were directly added to a CCK8 reagent until reaching a final concentration of 10% and cultured for 1 to 4 hours. When a dark yellow color could be observed in the solvent control wells, the absorbance value at OD450 nm was measured and the cell growth rate was calculated according to the following formula: Cell Growth Rate (%)=100×(T−T0)/(C−T0)
(§4) T=optical density of drug-treated cell wells−optical density of blank control wells; T0=optical density of cell wells before drug treatment−optical density of blank control wells; C=optical density of solvent control wells−optical density of blank control wells. […] The experiments were repeated 1 to 3 times and a statistical analysis of data was conducted.
(§5) Mutations in the FGFR1-4 gene often occur in different types of cancer patients. In order to test the growth inhibition activity of the present compound against tumor cells expressing different FGFR variants, tumor cell lines expressing representative FGFR1-4 were selected for further determining the activity of compounds 25, 66, 38 and 95 of the present invention. BGJ398, a selective inhibitor of FGFR1-4, was used as the control compound. The specific test method is the same as test example 1.

Another test deals with HGC-27. Put plainly: In vitro growth inhibition of PI3KCA amplified/mutant tumor cells HGC-27. The class given is cell-based. The following applies: Homo sapiens; HGC-27; PI3KCA H1047R; FGFR1OP2+++; read-out: IC50 growth inhibition. The protocol: Suspension culture cells were collected by centrifugation (1700 rpm, 3 minutes). The supernatant was discarded and the cells were counted. According to each cell growth cycle, different concentrations of cells were prepared (5˜10×10^4 cells per ml), and inoculated to 96-well plates (Corning), with 100 μl per well, and incubated overnight at 37° C., 5% CO2. The next day, the test compound was added to the cultured cells (2 wells in parallel). The final concentration of the solvent was less than 1/1,000. The cells were further cultured for 3 to 5 days and assayed by MTT.
The adherent cells were taken out from the cell culture medium, and immediately added to a freshly prepared complete medium containing 10% CCK8 (5% FBS), 100 ul per hole. The suspended cells were directly added to a CCK8 reagent until reaching a final concentration of 10% and cultured for 1 to 4 hours.
as §4

Another test deals with PLC/PRF/5. Briefly: In vitro growth inhibition of PLC/PRF/5 cells. The class given is cell-based. The following applies: Homo sapiens, FGFR3+++, FGFR4 +++. The method, then: as §1, §2, §3, §4, §5
The subject of another test is RS4:11. Put plainly: In vitro growth inhibition of FLT3 wild type overexpressing cells RS4:11. The format is cell-based. The following applies: Homo sapiens, cells over expressing FLT3 wild-type. The protocol:
as §1, §2, §3, §4
(§6) The present compounds which has a high growth inhibition activity on tumor cells positive expressing FLT3-ITD were selected for the determination of IC50 concentration on FLT3 wild tyoverexpressing cells RS4:11 and FLT3 wild-type normal expressing cells Jurkat. The specific test method is the same as that of test example 1.

Another test has as its system Jurkat. Briefly: In vitro growth inhibition of FLT3 wild-type normal expressing cells Jurkat. The format is cell-based. The settings on record: Homo sapiens, cells normally expressing FLT3 wild-type. The protocol:
as §1, §2, §3, §4, §6

The subject of a further test is H1703 (PDGFRa amp). Put plainly: In vitro growth inhibition of H1703 tumor cells (MTT/CCK8). The class given is cell-based, Human. The following applies: Homo sapiens, NCI-H1703; in vitro growth inhibition (or induction of apoptosis), cells cultured 3 to 5 days, MTT (CCK8); read-out: IC50 H1703 (PDGFRa amp).

Broadly, the IC50 is the concentration needed to halve the response being measured. On to `COc1cc2nccc(Oc3ccc(NC(=O)Nc4cc(C(C)(C)C)nn4C)c(Cl)c3Cl)c2cc1C(N)=O` [Compound 38, 4-{4-[3-(5-tert-butyl-2-methyl-2H-pyrazol-3-yl)-ureido]-2,3-dichloro-phenoxy}-7-methoxyquinolin-6-carboxamide], for which the IC50 in the test with JHH-7 amounted to 9.89 nM; with HGC-27, 19.2 nM; in the test on PLC/PRF/5, 2.08 nM; in the test on RS4:11, 65.8 nM; in the test with Jurkat it was 202 nM; with H1703 (PDGFRa amp) it was 1.81 nM.
For `COCCOc1cc2nccc(Oc3ccc(NC(=O)Nc4cc(C(C)(C)C)n[nH]4)c(Cl)c3)c2cc1NC(C)=O` [Compound 66, N-[4-{4-[3-(5-tert-butyl-2H-pyrazol-3-yl)-ureido]-3-chloro-phenoxy}-7-(2-methoxy-ethoxy)-quinolin-6-yl]-acetamide], the IC50 with JHH-7 was determined as 12.9 nM; with HGC-27, 39.9 nM; in the test with PLC/PRF/5 it was 2.67 nM; with RS4:11, 523 nM; in the test with Jurkat, 462 nM; in the test on H1703 (PDGFRa amp), 7.54 nM.
In the case of `CN1CCN(CCCOc2cc3nccc(Oc4ccc(NC(=O)Nc5cc(C(C)(C)C)n[nH]5)c(Cl)c4Cl)c3cc2C(N)=O)CC1` [Compound 95], the half-maximal inhibitory concentration (IC50) in the test with JHH-7 amounted to 17.6 nM; in the test on HGC-27, 30.9 nM; in the test on PLC/PRF/5 it was 2.37 nM; in the test on H1703 (PDGFRa amp), 3.81 nM.

(Values after US10800741B2 (ANCUREALL PHARMACEUTICAL (SHANGHAI) CO., LTD., priority 2017, dated 2020).)
